Results as given in patent US11981658B2, “Substituted aminopyridine compounds as EGFR inhibitors” (YUHAN CORPORATION, priority 2021, dated 2024).
Where two headings read alike, the source gives them in different places.

Key:
EGFR wildtype (WT) = EGFR wildtype (WT) (Homo sapiens, UniProt P00533); test: Biochemical EGFR kinase inhibition assay (Lance Ultra TR-FRET), wildtype
How it was run: (§1)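 Enzyme reactions lasted 1 hour at room temperature with test compounds between 0.003 and 10 μM, followed by 10 mM EDTA quench.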

EGFR L858R/C797S = EGFR L858R/C797S (Homo sapiens, UniProt P00533, C797S/L858R); test: Biochemical EGFR kinase inhibition assay (Lance Ultra TR-FRET), double mutant L858R/C797S
EGFR L858R/C797S, sequence (P00533 25-1210 C797S/L858R): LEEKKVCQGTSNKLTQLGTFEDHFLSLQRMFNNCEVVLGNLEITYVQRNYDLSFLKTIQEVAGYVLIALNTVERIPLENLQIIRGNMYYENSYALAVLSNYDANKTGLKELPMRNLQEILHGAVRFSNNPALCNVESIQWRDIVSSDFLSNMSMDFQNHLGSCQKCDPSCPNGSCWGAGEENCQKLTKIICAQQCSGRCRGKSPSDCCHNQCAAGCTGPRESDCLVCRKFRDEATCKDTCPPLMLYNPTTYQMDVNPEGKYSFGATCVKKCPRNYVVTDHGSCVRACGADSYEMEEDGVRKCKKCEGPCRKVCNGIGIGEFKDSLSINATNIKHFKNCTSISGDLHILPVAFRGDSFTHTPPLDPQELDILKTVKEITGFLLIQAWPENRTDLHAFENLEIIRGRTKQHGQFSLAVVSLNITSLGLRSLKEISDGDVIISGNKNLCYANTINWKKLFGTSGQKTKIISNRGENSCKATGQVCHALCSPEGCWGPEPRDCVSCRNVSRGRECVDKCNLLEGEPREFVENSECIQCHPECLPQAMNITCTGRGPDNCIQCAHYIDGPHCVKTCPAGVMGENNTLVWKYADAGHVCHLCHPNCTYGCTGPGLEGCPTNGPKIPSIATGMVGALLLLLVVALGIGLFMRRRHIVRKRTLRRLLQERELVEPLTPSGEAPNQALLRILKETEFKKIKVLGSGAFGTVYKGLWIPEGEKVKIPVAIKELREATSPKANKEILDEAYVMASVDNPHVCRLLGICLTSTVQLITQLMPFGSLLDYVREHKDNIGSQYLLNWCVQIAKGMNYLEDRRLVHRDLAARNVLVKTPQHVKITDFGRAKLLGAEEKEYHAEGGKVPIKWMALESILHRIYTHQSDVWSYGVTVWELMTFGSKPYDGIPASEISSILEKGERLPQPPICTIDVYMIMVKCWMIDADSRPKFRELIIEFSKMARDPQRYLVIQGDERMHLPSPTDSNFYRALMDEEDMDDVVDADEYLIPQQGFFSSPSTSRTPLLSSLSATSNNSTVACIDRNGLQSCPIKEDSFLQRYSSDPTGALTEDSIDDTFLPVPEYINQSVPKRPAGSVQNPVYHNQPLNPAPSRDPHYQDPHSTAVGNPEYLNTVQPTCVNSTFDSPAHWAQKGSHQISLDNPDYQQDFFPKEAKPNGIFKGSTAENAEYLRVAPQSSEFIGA
How it was run: as §1

EGFR Del19/T790M/C797S = EGFR Del19/T790M/C797S (Homo sapiens, UniProt P00533, C797S/DEL746-750/T790M); test: Biochemical EGFR kinase inhibition assay (Lance Ultra TR-FRET), triple mutant del19/T790M/C797S
EGFR Del19/T790M/C797S, sequence (P00533 with tags, fused parts or gaps DEL746-750/T790M/C797S): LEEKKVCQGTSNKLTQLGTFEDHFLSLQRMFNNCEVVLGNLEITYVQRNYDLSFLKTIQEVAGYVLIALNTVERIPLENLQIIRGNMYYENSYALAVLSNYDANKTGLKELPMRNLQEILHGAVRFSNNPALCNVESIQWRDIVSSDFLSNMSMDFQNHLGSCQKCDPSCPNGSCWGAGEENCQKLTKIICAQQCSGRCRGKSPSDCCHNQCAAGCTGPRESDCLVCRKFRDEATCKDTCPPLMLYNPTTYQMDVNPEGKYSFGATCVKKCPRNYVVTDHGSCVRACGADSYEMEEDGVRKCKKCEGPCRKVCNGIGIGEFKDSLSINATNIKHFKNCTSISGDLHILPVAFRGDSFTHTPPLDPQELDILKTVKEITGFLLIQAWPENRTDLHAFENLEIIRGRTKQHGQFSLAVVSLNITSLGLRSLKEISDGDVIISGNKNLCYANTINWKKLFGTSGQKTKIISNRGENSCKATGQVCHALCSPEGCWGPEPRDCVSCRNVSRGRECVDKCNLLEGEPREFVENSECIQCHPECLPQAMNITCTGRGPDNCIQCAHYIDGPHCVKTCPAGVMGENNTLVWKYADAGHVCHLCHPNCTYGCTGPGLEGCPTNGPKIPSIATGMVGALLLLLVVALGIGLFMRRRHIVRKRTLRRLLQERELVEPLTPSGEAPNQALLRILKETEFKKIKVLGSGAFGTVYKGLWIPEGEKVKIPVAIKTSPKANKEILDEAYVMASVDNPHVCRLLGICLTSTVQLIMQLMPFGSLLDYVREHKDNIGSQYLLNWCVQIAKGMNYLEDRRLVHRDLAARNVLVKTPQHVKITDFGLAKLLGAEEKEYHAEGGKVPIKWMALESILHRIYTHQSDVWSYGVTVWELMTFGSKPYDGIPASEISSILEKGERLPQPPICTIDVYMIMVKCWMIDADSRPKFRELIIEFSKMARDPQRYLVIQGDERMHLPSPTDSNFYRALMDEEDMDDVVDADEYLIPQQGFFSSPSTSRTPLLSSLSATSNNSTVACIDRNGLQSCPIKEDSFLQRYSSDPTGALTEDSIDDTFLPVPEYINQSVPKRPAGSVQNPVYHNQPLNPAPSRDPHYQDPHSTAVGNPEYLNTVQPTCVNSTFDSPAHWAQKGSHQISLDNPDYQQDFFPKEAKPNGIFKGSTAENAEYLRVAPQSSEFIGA
How it was run: as §1

EGFR Del19/C797S = EGFR Del19/C797S (Homo sapiens, UniProt P00533, C797S/DEL746-750); test: Biochemical EGFR kinase inhibition assay (Lance Ultra TR-FRET), double mutant del19/C797S
How it was run: as §1

EGFR L858R/T790M/C797S = EGFR L858R/T790M/C797S (Homo sapiens, UniProt P00533, C797S/L858R/T790M); test: Biochemical EGFR kinase inhibition assay (Lance Ultra TR-FRET), triple mutant L858R/T790M/C797S
EGFR L858R/T790M/C797S, sequence (P00533 25-1210 T790M/C797S/L858R): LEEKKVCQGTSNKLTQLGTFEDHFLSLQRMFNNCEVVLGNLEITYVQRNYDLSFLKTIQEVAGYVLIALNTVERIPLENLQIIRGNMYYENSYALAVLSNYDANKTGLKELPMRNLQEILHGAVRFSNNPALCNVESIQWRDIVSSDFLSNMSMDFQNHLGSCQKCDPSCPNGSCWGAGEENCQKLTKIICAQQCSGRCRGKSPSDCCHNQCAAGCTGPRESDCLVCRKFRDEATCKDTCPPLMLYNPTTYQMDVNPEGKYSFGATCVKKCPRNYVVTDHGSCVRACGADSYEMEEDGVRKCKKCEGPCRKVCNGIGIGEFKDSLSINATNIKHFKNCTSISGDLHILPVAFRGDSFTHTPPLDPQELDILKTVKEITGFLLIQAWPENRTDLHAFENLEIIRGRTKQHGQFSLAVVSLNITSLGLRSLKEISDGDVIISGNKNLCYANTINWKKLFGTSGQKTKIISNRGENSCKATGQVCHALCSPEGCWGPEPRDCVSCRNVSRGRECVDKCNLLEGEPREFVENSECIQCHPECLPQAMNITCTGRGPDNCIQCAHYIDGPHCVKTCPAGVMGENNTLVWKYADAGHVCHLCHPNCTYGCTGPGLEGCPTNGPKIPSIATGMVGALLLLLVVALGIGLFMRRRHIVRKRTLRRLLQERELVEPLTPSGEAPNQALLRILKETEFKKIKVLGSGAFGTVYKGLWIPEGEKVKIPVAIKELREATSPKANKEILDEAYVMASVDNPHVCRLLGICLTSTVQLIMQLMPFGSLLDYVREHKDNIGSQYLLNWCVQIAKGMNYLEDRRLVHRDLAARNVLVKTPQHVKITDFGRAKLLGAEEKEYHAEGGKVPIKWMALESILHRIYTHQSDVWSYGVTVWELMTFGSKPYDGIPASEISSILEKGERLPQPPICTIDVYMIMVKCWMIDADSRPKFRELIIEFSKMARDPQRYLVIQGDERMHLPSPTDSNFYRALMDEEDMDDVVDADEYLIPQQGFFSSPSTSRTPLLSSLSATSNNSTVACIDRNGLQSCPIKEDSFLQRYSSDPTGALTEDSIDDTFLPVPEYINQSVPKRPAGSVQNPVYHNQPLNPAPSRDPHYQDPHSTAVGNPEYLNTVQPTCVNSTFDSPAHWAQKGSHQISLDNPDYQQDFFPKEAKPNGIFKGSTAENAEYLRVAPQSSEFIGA
How it was run: as §1

[1] = Km ATP, read-out: IC50 WT (nM) Km ATP
[2] = IC50 L858R/C797S (nM), 100 μM ATP
[3] = Km ATP, read-out: IC50 L858R/C797S (nM) Km ATP
[4] = IC50 Del19/T790M/C797S (nM), 100 μM ATP
[5] = Km ATP, read-out: IC50 Del19/T790M/C797S (nM) Km ATP
[6] = IC50 Del19/C797S (nM), 100 μM ATP
[7] = Km ATP, read-out: IC50 Del19/C797S (nM) Km ATP
[8] = IC50 L858R/T790M/C797S (nM), 100 μM ATP
[9] = Km ATP, read-out: IC50 L858R/T790M/C797S (nM) Km ATP

EGFR wildtype (WT), sequence (P00533 25-1210): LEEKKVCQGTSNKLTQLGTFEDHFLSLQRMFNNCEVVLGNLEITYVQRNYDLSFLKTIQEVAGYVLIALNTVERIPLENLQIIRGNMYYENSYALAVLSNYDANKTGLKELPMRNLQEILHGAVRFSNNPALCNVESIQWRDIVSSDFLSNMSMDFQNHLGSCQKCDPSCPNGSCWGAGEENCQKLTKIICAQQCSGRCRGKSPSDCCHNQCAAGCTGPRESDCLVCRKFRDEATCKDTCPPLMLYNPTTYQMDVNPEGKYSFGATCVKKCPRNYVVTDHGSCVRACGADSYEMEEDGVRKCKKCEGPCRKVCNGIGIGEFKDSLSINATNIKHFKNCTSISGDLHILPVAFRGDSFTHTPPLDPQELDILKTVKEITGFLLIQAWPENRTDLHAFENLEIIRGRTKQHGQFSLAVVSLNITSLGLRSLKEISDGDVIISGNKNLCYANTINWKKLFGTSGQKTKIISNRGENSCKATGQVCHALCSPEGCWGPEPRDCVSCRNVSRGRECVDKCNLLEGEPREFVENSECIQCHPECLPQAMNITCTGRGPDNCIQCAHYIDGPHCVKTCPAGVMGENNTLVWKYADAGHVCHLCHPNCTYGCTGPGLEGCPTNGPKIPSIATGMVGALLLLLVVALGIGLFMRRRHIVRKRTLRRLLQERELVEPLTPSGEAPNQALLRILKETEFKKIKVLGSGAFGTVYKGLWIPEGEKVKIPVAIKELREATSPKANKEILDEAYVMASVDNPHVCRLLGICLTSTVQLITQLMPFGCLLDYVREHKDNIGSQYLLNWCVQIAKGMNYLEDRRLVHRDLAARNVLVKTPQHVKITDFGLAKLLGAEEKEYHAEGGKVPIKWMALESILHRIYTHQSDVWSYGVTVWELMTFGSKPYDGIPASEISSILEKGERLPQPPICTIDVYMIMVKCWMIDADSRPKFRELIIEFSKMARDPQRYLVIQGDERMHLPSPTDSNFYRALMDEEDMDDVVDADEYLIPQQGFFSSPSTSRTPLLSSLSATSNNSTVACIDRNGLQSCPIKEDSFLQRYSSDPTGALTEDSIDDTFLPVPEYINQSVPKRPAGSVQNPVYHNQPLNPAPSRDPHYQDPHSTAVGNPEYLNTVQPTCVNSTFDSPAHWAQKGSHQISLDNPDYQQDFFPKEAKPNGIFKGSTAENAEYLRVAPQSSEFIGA

Row | Structure (SMILES) | IC50 (EGFR wildtype (WT); IC50 WT (nM), 100 μM ATP) [nM] | IC50 (EGFR wildtype (WT); [1]) [nM] | IC50 (EGFR L858R/C797S; [2]) [nM] | IC50 (EGFR L858R/C797S; [3]) [nM] | IC50 (EGFR Del19/T790M/C797S; [4]) [nM] | IC50 (EGFR Del19/T790M/C797S; [5]) [nM] | IC50 (EGFR Del19/C797S; [6]) [nM] | IC50 (EGFR Del19/C797S; [7]) [nM] | IC50 (EGFR L858R/T790M/C797S; [8]) [nM] | IC50 (EGFR L858R/T790M/C797S; [9]) [nM]
1 | CC1(CO)CCN(c2cc(Nc3ccnc(-c4cnn(S(=O)(=O)C5CC5)c4)n3)ncc2C#Cc2cnn(C3CC3)c2)CC1 [Example 47, (1-(5-((1-Cyclopropyl-1H-pyrazol-4-yl)ethynyl)-2-((2-(1-(cyclopropylsulfonyl)-1H-pyrazol-4-yl)pyrimidin-4-yl)amino)pyridin-4-yl)-4-methylpiperidin-4-yl)methanol] | 1740 | 19.6 | 7.8 | 3.3 | 2.8 | 2.1 | 1.6 | 2.6 | 3.5 | 1.4
2 | CC1(CO)CCN(c2cc(Nc3ccnc(-c4cnn(S(=O)(=O)C5CC5)c4)n3)ncc2C#Cc2cnn(CC3CC3)c2)CC1 [Example 48, (1-(5-((1-(Cyclopropylmethyl)-1H-pyrazol-4-yl)ethynyl)-2-((2-(1-(cyclopropylsulfonyl)-1H-pyrazol-4-yl)pyrimidin-4-yl)amino)pyridin-4-yl)-4-methylpiperidin-4-yl)methanol] | 2910 | 38.2 | 15.9 | 7.2 | 5.3 | 4 | 2.2 | 4.3 | 9.1 | 2.3
3 | CC1(CO)CCN(c2cc(Nc3ccnc(-c4cnn(S(=O)(=O)C5CC5)c4)n3)ncc2C#Cc2cnn(CC(F)F)c2)CC1 [Example 49, (1-(2-((2-(1-(Cyclopropylsulfonyl)-1H-pyrazol-4-yl)pyrimidin-4-yl)amino)-5-((1-(2,2-difluoroethyl)-1H-pyrazol-4-yl)ethynyl)pyridin-4-yl)-4-methylpiperidin-4-yl)methanol] | 1260 | 14.3 | 7.2 | 2.8 | 1.8 | 1.8 | 0.9 | 2.1 | 2.9 | 1.1
4 | CN(C)Cc1ccc(CNc2cc(Nc3ccnc(-c4cnn(S(=O)(=O)C5CC5)c4)n3)ncc2C#Cc2cnn(C)c2)cc1 [Example 50, N^2-(2-(1-(Cyclopropylsulfonyl)-1H-pyrazol-4-yl)pyrimidin-4-yl)-N^4-(4-((dimethylamino)methyl)benzyl)-5-((1-methyl-1H-pyrazol-4-yl)ethynyl)pyridine-2,4-diamine] | – | 362 | – | 130 | – | 0.9 | – | 128 | – | 4.5
5 | CN(C)Cc1ccc(CNc2cc(Nc3ccnc(-c4cnn(S(=O)(=O)C5CC5)c4)n3)ncc2C#Cc2cnn(CCF)c2)cc1 [Example 51, N^2-(2-(1-(Cyclopropylsulfonyl)-1H-pyrazol-4-yl)pyrimidin-4-yl)-N^4-(4-((dimethylamino)methyl)benzyl)-5-((1-(2-fluoroethyl)-1H-pyrazol-4-yl)ethynyl)pyridine-2,4-diamine] | – | 262 | – | 49.1 | – | 0.9 | – | 68.6 | – | 3.2
6 | CN(C)Cc1ccc(CNc2cc(Nc3ccnc(-c4cnn(S(=O)(=O)C5CC5)c4)n3)ncc2C#Cc2cnn(CC(F)F)c2)cc1 [Example 52, N^2-(2-(1-(Cyclopropylsulfonyl)-1H-pyrazol-4-yl)pyrimidin-4-yl)-5-((1-(2,2-difluoroethyl)-1H-pyrazol-4-yl)ethynyl)-N^4-(4-((dimethylamino)methyl)benzyl)pyridine-2,4-diamine] | – | 304 | – | 65.6 | – | 1.4 | – | 76.9 | – | 3.8
7 | CN(C)C[C@H]1CC[C@H](CNc2cc(Nc3ccnc(-c4cnn(S(=O)(=O)C5CC5)c4)n3)ncc2C#Cc2cnn(C)c2)CC1 [Example 53, N^2-(2-(1-(Cyclopropylsulfonyl)-1H-pyrazol-4-yl)pyrimidin-4-yl)-N^4-(((1r,4r)-4-((dimethylamino)methyl)cyclohexyl)methyl)-5-((1-methyl-1H-pyrazol-4-yl)ethynyl)pyridine-2,4-diamine] | – | 142 | – | 141 | – | 0.4 | – | 5.9 | – | 0.3
8 | CN(C)C[C@H]1CC[C@H](COc2cc(Nc3ccnc(-c4cnn(S(=O)(=O)C5CC5)c4)n3)ncc2C#Cc2cnn(C)c2)CC1 [Example 58, 2-(1-(Cyclopropylsulfonyl)-1H-pyrazol-4-yl)-N-(4-(((1r,4r)-4-((dimethylamino)methyl)cyclohexyl)methoxy)-5-((1-methyl-1H-pyrazol-4-yl)ethynyl)pyridin-2-yl)pyrimidin-4-amine] | > 10000 | 15.1 | 24.7 | 4.7 | 1.1 | 0.3 | 2.8 | 0.6 | 0.5 | 0.1
9 | CC(C)n1cc(C#Cc2cnc(Nc3ccnc(-c4cnn(S(=O)(=O)C5CC5)c4)n3)cc2OC[C@H]2CC[C@H](CN(C)C)CC2)cn1 [Example 59, 2-(1-(Cyclopropylsulfonyl)-1H-pyrazol-4-yl)-N-(4-(((1r,4r)-4-((dimethylamino)methyl)cyclohexyl)methoxy)-5-((1-isopropyl-1H-pyrazol-4-yl)ethynyl)pyridin-2-yl)pyrimidin-4-amine] | > 10000 | 19.2 | – | 1.7 | 1.4 | 0.6 | 2.6 | 1.1 | 0.7 | 0.1
10 | CN(C)C[C@H]1CC[C@H](COc2cc(Nc3ccnc(-c4cnn(S(=O)(=O)C5CC5)c4)n3)ncc2C#Cc2cnn(C3CC3)c2)CC1 [Example 60, N-(5-((1-Cyclopropyl-1H-pyrazol-4-yl)ethynyl)-4-(((1r,4r)-4-((dimethylamino)methyl)cyclohexyl)methoxy)pyridin-2-yl)-2-(1-(cyclopropylsulfonyl)-1H-pyrazol-4-yl)pyrimidin-4-amine] | – | 8.8 | – | 2.6 | – | 0.5 | – | 0.4 | – | 0.1
11 | CN(C)C[C@H]1CC[C@H](COc2cc(Nc3ccnc(-c4cnn(S(=O)(=O)C5CC5)c4)n3)ncc2C#Cc2cnn(CCF)c2)CC1 [Example 61, 2-(1-(Cyclopropylsulfonyl)-1H-pyrazol-4-yl)-N-(4-(((1r,4r)-4-((dimethylamino)methyl)cyclohexyl)methoxy)-5-((1-(2-fluoroethyl)-1H-pyrazol-4-yl)ethynyl)pyridin-2-yl)pyrimidin-4-amine] | – | 4.2 | – | 3.1 | – | 0.5 | – | 0.5 | – | 0.1
12 | CN(C)C[C@H]1CC[C@H](COc2cc(Nc3ccnc(-c4cnn(S(=O)(=O)C5CC5)c4)n3)ncc2C#Cc2cccnc2)CC1 [Example 62, 2-(1-(Cyclopropylsulfonyl)-1H-pyrazol-4-yl)-N-(4-(((1r,4r)-4-((dimethylamino)methyl)cyclohexyl)methoxy)-5-(pyridin-3-ylethynyl)pyridin-2-yl)pyrimidin-4-amine] | – | 7.9 | – | 4.9 | – | 0.2 | – | 0.4 | – | 0.1
13 | Cn1cc(C#Cc2cnc(Nc3ccnc(-c4cnn(S(=O)(=O)C5CC5)c4)n3)cc2N2CCC(NS(C)(=O)=O)CC2)cn1 [Example 63, N-(1-(2-((2-(1-(Cyclopropylsulfonyl)-1H-pyrazol-4-yl)pyrimidin-4-yl)amino)-5-((1-methyl-1H-pyrazol-4-yl)ethynyl)pyridin-4-yl)piperidin-4-yl)methanesulfonamide] | > 10000 | – | 83.4 | – | 1.2 | – | 23.1 | – | 2.4 | –
14 | CC(C)NC1CCN(c2cc(Nc3ccnc(-c4cnn(S(=O)(=O)C5CC5)c4)n3)ncc2C#Cc2cnn(C)c2)CC1 [Example 64, 2-(1-(Cyclopropylsulfonyl)-1H-pyrazol-4-yl)-N-(4-(4-(isopropylamino)piperidin-1-yl)-5-((1-methyl-1H-pyrazol-4-yl)ethynyl)pyridin-2-yl)pyrimidin-4-amine] | > 10000 | – | 306 | – | 1 | – | 88.3 | – | 2 | –
15 | Cn1cc(C#Cc2cnc(Nc3ccnc(-c4cnn(S(=O)(=O)C5CC5)c4)n3)cc2N2CCC(C(F)(F)F)CC2)cn1 [Example 65, 2-(1-(Cyclopropylsulfonyl)-1H-pyrazol-4-yl)-N-(5-((1-methyl-1H-pyrazol-4-yl)ethynyl)-4-(4-(trifluoromethyl)piperidin-1-yl)pyridin-2-yl)pyrimidin-4-amine] | > 10000 | – | 604 | – | 8.2 | – | 338 | – | 39.2 | –
16 | Cn1cc(C#Cc2cnc(Nc3ccnc(-c4cnn(S(=O)(=O)C5CC5)c4)n3)cc2N2CCC(F)(C(F)(F)F)CC2)cn1 [Example 66, 2-(1-(Cyclopropylsulfonyl)-1H-pyrazol-4-yl)-N-(4-(4-fluoro-4-(trifluoromethyl)piperidin-1-yl)-5-((1-methyl-1H-pyrazol-4-yl)ethynyl)pyridin-2-yl)pyrimidin-4-amine] | > 10000 | – | 350 | – | 9 | – | 114 | – | 31.1 | –
